Laboratory results: the CheMixHub viscosity set
± gives the uncertainty stated by the source.

Experiment: xn = mol fraction of the nth substance listed
Settings: 101.33 kPa

CCCCCCCCCCCC(=O)OCC + CCCO
viscosity [mPa·s]
Settings | x2 = 0.1001 | x2 = 0.2003 | x2 = 0.3 | x2 = 0.3999 | x2 = 0.5 | x2 = 0.5999 | x2 = 0.7 | x2 = 0.8 | x2 = 0.9
293.15 K | 3.214 ± 0.13 | 3.059 ± 0.12 | 2.924 ± 0.12 | 2.798 ± 0.12 | 2.671 ± 0.11 | 2.547 ± 0.1 | 2.426 ± 0.099 | 2.307 ± 0.095 | 2.215 ± 0.091
298.15 K | 2.875 ± 0.12 | 2.742 ± 0.11 | 2.62 ± 0.11 | 2.504 ± 0.1 | 2.398 ± 0.098 | 2.286 ± 0.094 | 2.175 ± 0.089 | 2.078 ± 0.085 | 1.997 ± 0.082
303.15 K | 2.579 ± 0.11 | 2.464 ± 0.1 | 2.353 ± 0.096 | 2.252 ± 0.092 | 2.15 ± 0.088 | 2.052 ± 0.084 | 1.956 ± 0.08 | 1.869 ± 0.077 | 1.786 ± 0.073
308.15 K | 2.32 ± 0.095 | 2.218 ± 0.091 | 2.12 ± 0.087 | 2.025 ± 0.083 | 1.936 ± 0.079 | 1.845 ± 0.076 | 1.756 ± 0.072 | 1.674 ± 0.069 | 1.6 ± 0.066
313.15 K | 2.108 ± 0.086 | 2.013 ± 0.082 | 1.919 ± 0.079 | 1.833 ± 0.075 | 1.749 ± 0.072 | 1.669 ± 0.068 | 1.59 ± 0.065 | 1.513 ± 0.062 | 1.44 ± 0.059
318.15 K | 1.935 ± 0.079 | 1.849 ± 0.076 | 1.767 ± 0.072 | 1.688 ± 0.069 | 1.609 ± 0.066 | 1.531 ± 0.063 | 1.454 ± 0.06 | 1.381 ± 0.057 | 1.315 ± 0.054
323.15 K | 1.748 ± 0.072 | 1.67 ± 0.068 | 1.595 ± 0.065 | 1.522 ± 0.062 | 1.451 ± 0.059 | 1.382 ± 0.057 | 1.315 ± 0.054 | 1.251 ± 0.051 | 1.188 ± 0.049
